# Assay results: ChEMBL document CHEMBL4616595, “Targeted suppression of metastasis regulatory transcription factor SOX2 in various cancer cell lines using a sequence-specific designer pyrrole-imidazole polyamide” (Bioorg Med Chem, 2020)
# The source made the active and inactive calls. The rule behind the calls is not given here.
# What was measured:
# [1] = system: SOX2 promoter DNA; assay: Binding affinity to SOX2 promoter 5'-CTTTGTT-3' DNA in human SW620 cells assessed as downregulation DVL3 mRNA expression incubated for 48 hrs by qRT-PCR analysis; type: cell-based; conditions: SW-620
# [2] = system: SOX2 promoter DNA; assay: Binding affinity to SOX2 promoter 5'-CTTTGTT-3' DNA in human MCF7 cells assessed as reduction in SOX2 mRNA expression incubated for 48 hrs by qRT-PCR analysis; type: cell-based
# [3] = system: SW-620; assay: Up regulation of PUMA mRNA expression in human SW620 cells incubated for 48 hrs by qRT-PCR analysis; type: functional, cell-based
# [4] = system: SOX2 promoter DNA; assay: Binding affinity to SOX2 promoter 5'-CTTTGTT-3' DNA in human SW620 cells assessed as down regulation of CDH2 gene expression at 2 uM incubated for 48 hrs by Cy3-labelled cRNA-based microarray analysis; type: cell-based; conditions: SW-620
# [5] = system: SOX2 promoter DNA; assay: Binding affinity to SOX2 promoter 5'-CTTTGTT-3' DNA in human SW620 cells assessed as down regulation of JAG1 gene expression at 2 uM incubated for 48 hrs by Cy3-labelled cRNA-based microarray analysis; type: cell-based; conditions: SW-620
# [6] = system: SOX2 promoter DNA; assay: Binding affinity to SOX2 promoter 5'-CTTTGTT-3' DNA in human U2OS cells assessed as reduction in SOX2 mRNA expression incubated for 48 hrs by qRT-PCR analysis; type: cell-based
# [7] = system: SOX2 promoter DNA; assay: Binding affinity to SOX2 promoter 5'-CTTTGTT-3' DNA in human MKN45 cells assessed as reduction in SOX2 protein level incubated for 48 hrs by immunostaining based FACS analysis; type: cell-based; conditions: MKN-45
# [8] = system: SOX2 promoter DNA; assay: Binding affinity to SOX2 promoter 5'-CTTTGTT-3' DNA in human SW620 cells assessed as down regulation of VIM gene expression at 2 uM incubated for 48 hrs by Cy3-labelled cRNA-based microarray analysis; type: cell-based; conditions: SW-620
# [9] = system: SOX2 promoter DNA; assay: Binding affinity to SOX2 promoter 5'-CTTTGTT-3' DNA in human SW620 cells assessed as down regulation of GRB2 mRNA expression incubated for 48 hrs by qRT-PCR analysis; type: cell-based; conditions: SW-620
# [10] = system: SOX2 promoter DNA; assay: Binding affinity to SOX2 promoter 5'-CTTTGTT-3' DNA in human SW620 cells assessed as reduction in SOX2 protein level by measuring SOX2 level at 5 uM incubated for 48 hrs by immunostaining based FACS analysis (reference value: 55.9%); type: cell-based; design: scale not given: the % may be the effect or the level left; conditions: SW-620
# [11] = system: SOX2 promoter DNA; assay: Binding affinity to SOX2 promoter 5'-CTTTGTT-3' DNA in human SW620 cells assessed as down regulation of PROM1 gene expression at 2 uM incubated for 48 hrs by Cy3-labelled cRNA-based microarray analysis; type: cell-based; conditions: SW-620
# [12] = system: B16-F10; assay: Anti-metastasis activity in mouse B16/F10 cells implanted in C57BL/6N mouse assessed as reduction in lung metastatic nodules at 1 mg/kg ip dosed every third day and measured on day 21 relative to untreated control; type: functional
# [13] = system: SOX2 promoter DNA; assay: Binding affinity to SOX2 promoter 5'-CTTTGTT-3' DNA in human PC3 cells assessed as reduction in SOX2 mRNA expression incubated for 48 hrs by qRT-PCR analysis; type: cell-based; conditions: PC-3
# [14] = system: SOX2 promoter DNA; assay: Binding affinity to SOX2 promoter 5'-CTTTGTT-3' DNA in mouse Wehi3 cells assessed as reduction in SOX2 mRNA expression incubated for 48 hrs by qRT-PCR analysis; type: cell-based
# [15] = system: SOX2 promoter DNA; assay: Binding affinity to SOX2 promoter 5'-CTTTGTT-3' DNA in human SW620 cells assessed as down regulation of POU5F1 gene expression at 2 uM incubated for 48 hrs by Cy3-labelled cRNA-based microarray analysis; type: cell-based; conditions: SW-620
smiles,measurement,setting,value
CC(=O)Nc1cc(C(=O)Nc2cc(C(=O)Nc3cc(C(=O)NCCC(=O)Nc4cn(C)c(C(=O)Nc5cc(C(=O)NCCCC(=O)Nc6cc(C(=O)Nc7cc(C(=O)NCCC(=O)Nc8cc(C(=O)Nc9cc(C(=O)Nc%10cn(C)c(C(=O)NCCCN(C)C)n%10)n(C)c9)n(C)c8)n(C)c7)n(C)c6)n(C)c5)n4)n(C)c3)n(C)c2)n(C)c1,Activity,[1],Active
same,Activity,[2],Active
same,Activity,[3],Active
same,Activity,[4],Active
same,Activity,[5],Active
same,Activity,[6],Active
same,Activity,[7],Dose-dependent effect
same,Activity,[8],Active
same,Activity,[9],Active
same,Activity,[10],28.1%
same,Activity,[11],Active
same,fold change (FC),[12],4
same,Activity,[13],Active
same,Activity,[14],Active
same,Activity,[15],Active
